# Experimental data as given in PubChem BioAssay (NCI).
#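 Five concentrations, 48 hours, 96-well plates. Abbreviation: GI50, concentration required for 50% inhibition of growth. TGI is the concentration that stops growth completely.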
# Tested on: SNB-19 CNS
# Assay: inhibition of tumour cell growth, NCI panel, 48 h
SMILES,GI50,TGI
COC([CH2][Hg][n]1cnc2c1c(=O)n(C)c(=O)n2C)CN1C(=O)c2ccccc2S1(=O)=O (centres undefined),> 100 µM,> 100 µM
CCCC1C(=O)CCc2c(OC)ccc(OC)c21 (centres undefined),,> 100 µM
O=C(CCc1nc(=S)[nH][nH]1)Nc1cc(Cl)c(Cl)cc1Cl,,> 100 µM
Cc1ccc(S(=O)(=O)OC[C@@H]2CO2)cc1,,> 100 µM
C=CCO[C@H]1CO[C@H]2[C@@H]1OC[C@@H]2Oc1ccc(Nc2ccnc(Nc3ccc(O[C@H]4CO[C@H]5[C@@H]4OC[C@@H]5OCC=C)c(Cl)c3)n2)cc1Cl,2 µM,3.73 µM
COc1cnc2c(c1)C(=O)c1c-2n(CCCN2CCOCC2)c(=O)c2cc(F)ccc12,0.264 µM,7 µM
CCOC(=O)CCC1(C(=O)OCC)CCCCC1=O (centres undefined),,> 100 µM
CCOC1Oc2ccccc2C(=O)/C1=C/Nc1ccc(C(C)=O)cc1 (centres undefined),42.2 µM,> 100 µM
Cc1nc2c(ccc3ncccc32)[nH]1,,> 100 µM
O=C(CCNC12CC3CC(CC(C3)C1)C2)c1ccccc1,,> 100 µM
COc1cccc(-c2cc(-c3cccc(NS(C)(=O)=O)c3)nc(N)c2C#N)c1O,0.486 µM,> 100 µM
CCN1CCN(Cc2ccc(NC(=O)c3cccc(C#Cc4cccc5[nH]nc(N)c45)c3)cc2C(F)(F)F)CC1,1.07 µM,2.3 µM
Cc1cc(N(CCC#N)CCC#N)ccc1N=Nc1ccc(S(N)(=O)=O)cc1,,> 100 µM
CC(=O)[CH-]C(=O)c1ccccc1.CC(=O)[CH-]C(=O)c1ccccc1.CN(C)c1ccc([O-])cc1.CN(C)c1ccc([O-])cc1.Cl.[Ti+4],22 µM,> 31.6 µM
CCN(CC)N=Nc1c(C(N)=O)n[nH]c1C,,> 100 µM
CCC[CH2][Sn]([CH2]CCC)([S]c1cccc2cccnc12)[S]c1cccc2cccnc12,0.373 µM,1.39 µM
OCC1=CC(NC2CC(CO)C(O)C(O)C2O)C(O)C(O)C1O (centres undefined),,> 100 µM
Nc1ccccc1S(=O)(=O)N(CC(=O)O)c1ccccc1,,> 100 µM
CCOC(=O)C(C)(C)Oc1ccc2c(-c3ccccc3)cc(=O)oc2c1,,> 100 µM
O=C(Nc1ccc(F)cc1)Nc1ccc(Cl)c([N+](=O)[O-])c1,3.54 µM,14.3 µM
CNC(=S)OCCC(C)CCCC(C)C (centres undefined),,33.4 µM
COC1/C=C/OC2(C)Oc3c(C)c(O)c4c(O)c(c(/C=N/Nc5ccc([N+](=O)[O-])cc5[N+](=O)[O-])c(O)c4c3C2=O)NC(=O)C(C)=C/C=C/C(C)C(O)C(C)C(O)C(C)C(OC(C)=O)C1C (centres undefined),3.92 µM,18.1 µM
COC(=O)/C(C#N)=C1\NC(=O)c2ccccc21,,> 100 µM
Cc1ccc(NC(=O)Nc2ccc(-c3cccnc3)cc2N2CCC(CO)CC2)cc1,2.64 µM,> 100 µM

# Tested on: A498 renal
# Assay: inhibition of tumour cell growth, NCI panel, 48 h
SMILES,GI50,TGI
CN(C)c1ccc(/C=C\C2=[N+](C)c3ccccc3C2(C)C)cc1,4.38 µM,28.2 µM
CC(=O)OC1OC([C@@H]2c3cccc(O)c3C(=O)c3c(O)cc(C)cc32)C(O)C(O)C1O (some centres undefined),0.0444 µM,0.358 µM
Nc1nc(-n2c(-c3ccccc3)nc3c(Br)cc(Br)cc3c2=O)nnc1-c1cccc(Cl)c1Cl,15.4 µM,56.5 µM
C[N+](C)(C)CC(=O)N/N=C(/CC(=O)CC(C1=C(O)c2ccccc2OC1)c1ccccc1)C(=O)Nc1cccc(Cl)c1 (centres undefined),,> 100 µM
O=C1/C(=C/c2ccc(O)c(O)c2)CCC/C1=C\c1ccc(O)c(O)c1,,21.1 µM
Cc1c(C(=O)C/C(=N/NC(=O)c2ccccc2O)C(=O)Nc2ccccc2C(C)C)[n+](=O)c2ccccc2n1[O-],,> 100 µM
CCCCCCCCCCCC(=O)OCCOCCOCCOCCOCCOCc1ccccc1,,> 100 µM
COC([CH2][Hg][n]1cnc2c1c(=O)n(C)c(=O)n2C)CN1C(=O)c2ccccc2S1(=O)=O (centres undefined),> 100 µM,> 100 µM
CCCC1C(=O)CCc2c(OC)ccc(OC)c21 (centres undefined),,> 100 µM
O=C(CCc1nc(=S)[nH][nH]1)Nc1cc(Cl)c(Cl)cc1Cl,,> 100 µM
Cc1ccc(S(=O)(=O)OC[C@@H]2CO2)cc1,,> 100 µM
CCn1c(C)nn2c(=O)c3ccccc3nc2c1=O,,> 100 µM
COc1cnc2c(c1)C(=O)c1c-2n(CCCN2CCOCC2)c(=O)c2cc(F)ccc12,0.172 µM,0.911 µM
CCOC(=O)CCC1(C(=O)OCC)CCCCC1=O (centres undefined),,> 100 µM
